What was measured:
[1] = tested on: NSD2; assay: Western blot of NSD2 knockdown by inducible shRNA in ALL cell lines; type: cell-based, human; conditions: induced with doxycycline, FIG. 13
Procedure: To test the hypothesis that the NSD2 E1099K mutation is important in the pathogenesis of ALL cells, several shRNA knockdown experiments were done. In these experiments, NSD2 shRNA sequences were cloned into pLKO-Tet-On vectors with the H1 promoter or U6 promoter. shRNA lentivitus was generated as described above. Cell lines were infected and selected by puromycin. All tet inducible shRNA cell lines are cultured using tet system approved FBS (Clontech, Cat#: 631106, Mountain View, Calif.). NSD2 Tet-inducible cellular proliferation assay was set up as the following. Cultured cells were placed at 0.2 million cells/ml in 10 ml and split into two wells (5 ml/well) in a 6-well plate. Doxycycline (100 ng/ml final) was added to one well at assay initiation and every 2-3 days to induce NSD2 Tet-inducible shRNAs. On days 4 and 8 the assayed cells (with and without doxycycline) were counted for viability and cell concentration (10^6 cell/ml) with Vi-cell. Assayed cells were then reset to 0.2×10^6 cells/ml in 5 ml every 4 days to keep the cells proliferating in log-phase. On day 8, 1 million cells were collected from assayed cells for Western blot analysis. The shRNA sequences used in the experiments were the following, and are used with this nomenclature in FIG. 13. […]

[2] = tested on: SEM cells; assay: NSD2 Tet-inducible cellular proliferation assay, SEM cells; type: cell-based; conditions: SEM cells (E1099K), shRNA induced vs U6-empty control, FIG. 14
Procedure: (§1) To test the hypothesis that the NSD2 E1099K mutation is important in the pathogenesis of ALL cells, several shRNA knockdown experiments were done. In these experiments, NSD2 shRNA sequences were cloned into pLKO-Tet-On vectors with the H1 promoter or U6 promoter. shRNA lentivitus was generated as described above. Cell lines were infected and selected by puromycin. All tet inducible shRNA cell lines are cultured using tet system approved FBS (Clontech, Cat#: 631106, Mountain View, Calif.). NSD2 Tet-inducible cellular proliferation assay was set up as the following. Cultured cells were placed at 0.2 million cells/ml in 10 ml and split into two wells (5 ml/well) in a 6-well plate. Doxycycline (100 ng/ml final) was added to one well at assay initiation and every 2-3 days to induce NSD2 Tet-inducible shRNAs. On days 4 and 8 the assayed cells (with and without doxycycline) were counted for viability and cell concentration (10^6 cell/ml) with Vi-cell. Assayed cells were then reset to 0.2×10^6 cells/ml in 5 ml every 4 days to keep the cells proliferating in log-phase. On day 8, 1 million cells were collected from assayed cells for Western blot analysis. The shRNA sequences used in the experiments were the following, and are used with this nomenclature in FIG. 13.
(§2) The shRNAs described above were then used in a cell proliferation assay. […]

[3] = tested on: JVM-3 line; assay: NSD2 Tet-inducible cellular proliferation assay, JVM-3 cells; type: cell-based; conditions: JVM-3 line (no E1099K), shRNA induced vs U6-empty control, FIG. 14
Procedure: as §1, §2

[4] = tested on: H3K36me2 and H3K27me3 methylation; assay: Western blot of histone H3 methylation status after shRNA knockdown in SEM cells; type: cell-based; conditions: NSD2 E1099K knocked down, FIG. 16
Procedure: NSD2 shRNA sequences were cloned into pLKO-Tet-On vectors with H1 promoter or U6 promoter. shRNA lentivitus was generated as described above. Cell lines were infected and selected by puromycin. All tet inducible shRNA cell lines are cultured using tet system approved FBS (Clontech, Cat#: 631106). The NSD2 Tet-inducible cellular proliferation assay was set up as follows. Cultured cells were placed at 0.2 million cells/ml in 10 ml and split into two wells (5 ml/well) in 6-well plate. Doxycycline (100 ng/ml final) was added to one well at assay initiation and every 2-3 days to induce NSD2 Tet-inducible shRNAs. On days 4 and 8 the assayed cells (with and without doxycycline) were counted for viability and cell concentration (10^6 cell/ml) with Vi-cell. Assayed cells were then reset to 0.2×10^6 cells/ml in 5 ml every 4 days to keep the cells proliferating in log-phase. On days 8, 1 million cells were collected from assayed cells for Western blot analysis. The shRNA sequences used in the experiments were the V17 (SEQ ID NO. 9) and 9A5 (SEQ ID NO. 10) as described in Example 11 above.
For example, this is clearly seen in SEM cells wherein NSD2 E1099K is knocked down with […]. The amount of NSD2 present is very low, as is H3K36me2 methylation.

[5] = tested on: KMS-11 cells; assay: KMS11-luciferase intravenous multiple myeloma mouse model with doxycycline-inducible NSD2 shRNA; type: in vivo, SCID-beige mice
Procedure: Six- to eight-week-old female SCID-beige mice (Vital River, Beijing, China) were injected intravenously with 10^7 KMS-11 cells stably transduced with inducible NSD2 shRNA (sh4: 5′ ACATGCTCACTATAGACAA′3 (SEQ ID NO:8)) and tagged with luciferase. The injection of KMS11 cells was in 100 μl PBS with 50% Matrigel, with 8-10 mice per group/treatment. To induce the shRNA expression, mice were fed with water containing 5% sucrose and 0.2 mg/ml doxycycline. Images were taken weekly (with 200 μl/mouse D-luciferase intraperitoneal injection), and pathology such as paralysis was monitored.

| Substance | expression of NSD2 and MMSET1 [1] | reduction of cell proliferation [2] | reduction of cell proliferation [3] | H3K27me3 methylation [4] | amount of NSD2 and H3K36me2 methylation [4] | tumor growth ([5]; KMS11-luciferase with inducible NSD2 shRNA, induction with doxycycline for 29 days, FIG. 3A) | luciferase activity of tumors ([5]; time course with vs without doxycycline induction, FIG. 3B) |
| --- | --- | --- | --- | --- | --- | --- | --- |
| 9A5 shRNA: NSD2 shRNA 5' GAATAAGCCTTACGGGAAA 3' (SEQ ID NO. 10), targets NSD2 isoforms containing the SET domain | capable of reducing expression of NSD2 and MMSET1 | about 60% | about 15% | robust H3K27me3 methylation | very low | – | – |
| sh4: inducible NSD2 shRNA, 5' ACATGCTCACTATAGACAA 3' (SEQ ID NO:8) | – | – | – | – | – | greatly inhibited tumor growth | greatly reduced |

From patent publication US20150354006A1, “MARKERS FOR ACUTE LYMPHOBLASTIC LEUKEMIA” (Novartis AG, priority 2012, published 2015)
